According to PMC8956058, “Cembranolides and Related Constituents from the Soft Coral Sarcophyton cinereum” (Molecules, 2022):
Read-outs that look alike come from different tables or passages of the source.

What was measured:
Type in all cases: cell-based
[1] = test system: P388 cells (mouse lymphoma); test: Alamar Blue cytotoxicity / anti-proliferation assay, P388; conditions: triplicate, read-out: Anti-proliferation activities (IC50) P388
Protocol: (§1) The assay was implemented according to the published protocols. In brief, the Alamar Blue assay was performed for compounds 2–19 by treating them with P388, DLD-1, HuCC-T1, and CCD966SK cancer cells, which were commercially available from the American Type Culture Collection (ATCC). The test was performed in triplicate, and doxorubicin was used as a positive control.

[2] = test system: DLD-1 cells (human colorectal adenocarcinoma); test: Alamar Blue cytotoxicity / anti-proliferation assay, DLD-1; conditions: triplicate, read-out: Anti-proliferation activities (IC50) DLD-1
Protocol: as §1

[3] = test system: HuCCT-1 cells (human intrahepatic cholangiocarcinoma); test: Alamar Blue cytotoxicity / anti-proliferation assay, HuCCT-1; conditions: triplicate, read-out: Anti-proliferation activities (IC50) HuCCT-1
Protocol: as §1

[4] = test system: CCD966SK cells (human skin fibroblast); test: Alamar Blue cytotoxicity / anti-proliferation assay, CCD966SK; conditions: triplicate, read-out: Anti-proliferation activities (IC50) CCD966SK
Protocol: as §1

[5] = Mus musculus, P388, P388 mouse lymphoma
[6] = Homo sapiens, DLD-1, DLD-1 human colorectal adenocarcinoma
[7] = Homo sapiens, HuCCT-1, HuCCT-1 human intrahepatic cholangiocarcinoma
[8] = DLD-1 human colorectal adenocarcinoma
[9] = HuCCT-1 human intrahepatic cholangiocarcinoma

Molecule	IC50 [1, 5] [µM]	IC50 [2, 6] [µM]	IC50 [3, 7] [µM]	IC50 ([4]; Homo sapiens, Skin fibroblast) [µM]	IC50 ([1]; P388 mouse lymphoma) [µM]	IC50 [2, 8] [µM]	IC50 [3, 9] [µM]	IC50 [4] [µM]
CC(C)C1(O)C=CC(C)(O)CCC(O)C2(C)CCC=C(CC1)C(=O)O2 (stereo not drawn) [Compound 2, Cinerenolide B]	> 30	> 30	> 30	> 30				
CC(C)C1(O)C=CC(C)(O)CCC(O)C2(C)CCC=C(CC1)C(=O)O2 (stereo not drawn) [Compound 3, Cinerenolide C]					> 30	> 30	> 30	> 30
C=C1CC[C@H]2O[C@]2(C)CCC2=C(C)CO[C@H]2/C=C(\C)CC[C@@H]1OC(C)=O [Compound 4, sarcophytonoxide E]	> 30	> 30	> 30	> 30				
CC1=C2CC[C@@]3(C)O[C@@H]3CC[C@@](C)(OO)/C=C/C/C(C)=C/[C@@H]2OC1=O [Compound 5, sarcomililatin A]	15.2 ± 3.2	> 30	> 30	> 30				
C=C1CC[C@H]2O[C@]2(C)CCC2=C(C)C(=O)O[C@H]2/C=C(\C)CC[C@H]1OO [Compound 6, sarcomililatin B]	11.8 ± 4.6	> 30	> 30	> 30				
CC1=CCCC2(C)OC2CCC(C)=CC=C(C(C)(C)O)CC1 (stereo not drawn) [Compound 7, 2-[(E,E,E)-7′,8′-epoxy-4′,8′,12′-trimethylcyclotetradeca-1′,3′,11′-trienyl]propan-2-ol]	> 30	> 30	> 30	> 30				
C/C1=C\[C@H](O)CC2=C[C@@H](OC2=O)[C@H](C(C)C)CC/C(C)=C/CC1 [Compound 8, sarcophytonolide F]	> 30	> 30	> 30	> 30				
CC1=C2CC[C@@]3(C)O[C@@H]3CC/C(C)=C/CC[C@@](C)(O)/C=C/2OC1=O [Compound 9, cherbonolide L]	> 30	> 30	> 30	> 30				
CC1=C2CC[C@@]3(C)O[C@@H]3CC/C(C)=C/CC/C(C)=C/[C@@H]2OC1=O [Compound 10, (+)-(2S)-isosarcophine]	> 30	> 30	> 30	> 30				
CC1=C2CC[C@@]3(C)O[C@@H]3CC/C(C)=C/CC/C(C)=C/[C@H]2OC1=O [Compound 11, (–)-(2R)-isosarcophine]	> 30	> 30	> 30	> 30				
CC(=O)O[C@H]1/C=C(\C)CC[C@H]2O[C@]2(C)CCC2=C(C)CO[C@H]2/C=C(\C)C1 [Compound 12, sarcophytonoxide A]	> 30	> 30	> 30	> 30				
CC(C)/C1=C/[C@@H](O)[C@]2(C)O[C@@H]2C[C@@H](O)[C@@]2(C)CCC=C(CC1)C(=O)O2 [Compound 13, sartrolide C]	> 30	> 30	> 30	> 30				
COC(=O)/C1=C\C=C(\C(C)C)CCC2=CCC[C@](C)(OC2=O)C(=O)CC1 [Compound 14, ketoemblide]	> 30	> 30	> 30	> 30				
CC(=O)OC1CC(C)=CCCC(C)=CC(=O)CC23C(=O)OC(C1C(C)C)C2CC(C)=C1CCC2=CCCC(C)(OC2=O)C(O)CCC(C)=CC13 (stereo not drawn) [Compound 16, glaucumolide A]				21.3 ± 5.8	16.7 ± 5.8	> 30	19.1 ± 6.4	
CC(=O)OC1CC(C)=CCCC(C)=CC(=O)CC23C(=O)OC(C1C(C)C)C2CC(C)=C1CCC2=CCCC(C)(OC2=O)C(O)CCC(C)=CC13 (stereo not drawn) [Compound 17, glaucumolide B]					22.8 ± 9.7	> 30	> 30	26.1 ± 10.3
CC(=O)OC1CC(C)=CCCC(C)=CC(=O)CC23C(=O)OC(C1C(C)C)C2CC(C)=C1CCC2=CCCC(C)(OC2=O)C(O)CCC(C)=CC13 (stereo not drawn) [Compound 18, bistrochelide A]					10.6 ± 1.9	9.9 ± 1	2 ± 0.1	18.8 ± 6.9
COc1cccc2c1C(=O)c1c(O)c3c(c(O)c1C2=O)C[C@@](O)(C(=O)CO)C[C@@H]3O[C@H]1C[C@H](N)[C@H](O)[C@H](C)O1 [Doxorubicin, doxorubicin, reference compound]	0.69 ± 0.01	4.1 ± 0.7	1.9 ± 0.1	2.9 ± 0.4				
isosarcophytonolide D [Compound 15]					> 30	> 30	> 30	27.6 ± 7.8
